We go through 6 compounds from paper PMC9335283 (Frontiers in Microbiology, 2022).

Values after ≈ are worked out from the molar mass of the structure shown. Where two headings read alike, the source gives them in different places. Where a SMILES comes first, the peptide text is derived from it.

The test system of data set [1] is S. aureus. Put plainly: microbe, parasite or virus in culture. It is filed as cell-based. The conditions noted are these: Staphylococcus aureus, 18 h.
Experimental: (§1) S. aureus and S. enteritidis isolates were obtained from laboratory clinical isolates, and avian pathogenic E. coli was kindly provided by Professor Qingke Kong (College of Veterinary Medicine, Southwest University). […] Bacteria were cultured at 37°C for 18 h in MHB or LB agar plates.
(§2) Briefly, bacteria were maintained in MHB medium at 37°C and grown to mid-logarithmic growth phase before being tested. […] After incubation, minimum inhibitory concentration (MIC) was determined by the observation of turbidity, and minimum bactericidal concentration (MBC) was determined by colony counting. […] After overnight culture at 37°C, survival bacteria were counted.
The test system of data set [2] is S. enteritidis. Description: microbe, parasite or virus in culture. The conditions noted are these: Salmonella enterica, MHB, 18 h, 37°C, triplicate; for MBC: colony counting; for MIC: turbidity. It counts as cell-based.
Text: S. aureus and S. enteritidis isolates were obtained from laboratory clinical isolates, and avian pathogenic E. coli was kindly provided by Professor Qingke Kong (College of Veterinary Medicine, Southwest University). Mueller–Hinton broth (MHB; Beijing Land Bridge Technology Co., Ltd., China) was used as bacterial growth media for antimicrobial activity assays, and Luria–Bertani (LB; Qingdao Hope Bio-Technology Co., Ltd., China) agar plates were used for the colony-counting assay. Bacteria were cultured at 37°C for 18 h in MHB or LB agar plates.
Antimicrobial activity of AMPs and antibiotics was performed by the broth microdilution assay as reported previously (Wiegand et al., [2008]). Briefly, bacteria were maintained in MHB medium at 37°C and grown to mid-logarithmic growth phase before being tested. Then, 50 μl of peptides (0–80 μM) and antibiotics (0–40,960 μM) with triplicate were mixed with an equal volume of bacterial suspension (2 × 10^6 CFU/ml) in 96-well plates and incubated for 18 h at 37°C. After incubation, minimum inhibitory concentration (MIC) was determined by the observation of turbidity, and minimum bactericidal concentration (MBC) was determined by colony counting. […] After overnight culture at 37°C, survival bacteria were counted.
For data set [3], the system named is E. coli. Description: microbe, parasite or virus in culture. It counts as cell-based. To be noted: Escherichia coli, 18 h.
Experimental: as §1, §2
The test system of the next data set is red blood cells of mice. Put plainly: Hemolytic activity assay. It is filed as cell-based.
A further data set deals with PK-15 cells. Put plainly: Cytotoxicity, WST-1 assay. It counts as cell-based. Background: Formazan colour is commonly taken as a measure of viable cells.
Data set [4] concerns S. aureus. Put plainly: Time-killing curve assay. It counts as cell-based, Staphylococcus aureus. The conditions noted are these: at sub-MBC (lowest concentrations with synergy), followed to 180 min.
Experimental: (§3) The bacterial suspension was prepared as described above. […] After overnight culture, colony counting was performed.
Data set [5] deals with E. coli. Description: Time-killing curve assay. It is filed as cell-based, Escherichia coli. To be noted: at sub-MBC (lowest concentrations with synergy), followed to 180 min.
Experimental: as §3
Data set [6] deals with E. coli. Description: Motility assay on semisolid agar. It counts as cell-based, Escherichia coli. The conditions noted are these: alone at 1/4 MIC, 18 h.
Data set [7] concerns E. coli. It counts as cell-based, Escherichia coli.
Experimental: Drug resistance induction of E. coli was performed as previously reported. […] Bacteria from the highest concentration of drug combination were regrown, and MIC of erythromycin was measured, and then bacteria were treated again with the drug combination. The change in MIC was described by normalizing the MIC of the n generation to the MIC of first generation.
The subject of data set [8] is E. coli. Put plainly: SEM analysis of bacterial morphology. The conditions noted are these: 1/16 MBC of each agent, 6 h, 37°C, 1 × 10^8 CFU/ml. It counts as cell-based, Escherichia coli.
Experimental: After incubation, bacterial suspension was centrifuged and washed with PBS three times. Then, bacterial pellets were fixed with 1.5 ml of 2.5% glutaraldehyde in PBS at 4°C overnight. Finally, samples were sent to the Lilai biomedicine experiment center (Sichuan, China) for SEM analysis.
Data set [9] concerns S. enteritidis. Description: Time-killing curve assay. To be noted: at sub-MBC (lowest concentrations with synergy), followed to 180 min.
Experimental: as §3

Experimental for PK-15 cells: Cells were seeded at a density of 1 × 10^5 cells/well in 48-well plates and cultured overnight before being used for assays described below. For cytotoxicity assay, mice peritoneal macrophages and PK-15 cells were prepared in a 48-well plate as described above and incubated with or without tested compounds for 2 h at 37°C with CO2. After 2 h incubation, cells were washed with a cell culture medium twice and continued to culture for 22 or 46 h. After 24 and 48 h incubation, 150 μl of 10% WST-1 reagent was added according to the protocols of the manufacturer. After 20 min incubation, absorbance was measured at 450 nm with a microplate reader (Bio-Rad, Japan) and was corrected for absorbance at 630 nm. Untreated cells were set as a control. The percent of cell viability (%) was calculated using the following formula: Cell viability (%) =OD450nm of treated sample/OD450nm of control×100%
Experimental for red blood cells of mice: Murine erythrocytes and peritoneal macrophages were obtained from wild-type (WT) C57BL/6 mice (Chongqing Academy of Chinese Material Medical, China). Briefly, erythrocytes were obtained by collecting blood from the tail vein. […] The hemolytic activities of AMPs and antibiotics were determined as previously described (Song et al., [2020]). In brief, whole mice blood was centrifuged at 1,500 rpm for 5 min at room temperature and then washed three times with phosphate-buffered saline (PBS) to obtain red blood cells (RBCs). Subsequently, 2% RBCs in PBS were prepared. Then, aliquots of 100 μl RBCs were mixed with 100 μl tested compounds in PBS in polypropylene 96-well microtiter plates and incubated for 1 h at 37°C. After incubation, the plate was centrifuged for 5 min at 1,500 rpm and 100 μl supernatant was transferred to a new 96-well plate to determine the absorbance at 570 nm. RBCs in PBS served as negative control while RBCs treated with 1% Triton X-100 in PBS served as a positive control. The percent of hemolysis (%) was calculated using the following formula Hemolysise (%)=(OD570nm of treated sample-OD570nm of negative control)/(OD570nm of positive control-OD570nm of negative control)×100%

On to `CC1(C)S[C@@H]2[C@H](NC(=O)[C@H](N)c3ccccc3)C(=O)N2[C@H]1C(=O)O` [Ampicillin, ampicillin], for which the MBC in the data set on S. aureus [1] was 640 µM (≈ 224 µg/mL); against S. enteritidis [2] it was greater than 5120 µM; against E. coli [3], 160 µM (≈ 55.9 µg/mL). Besides, the values for the MIC against S. aureus [1], in the data set on S. enteritidis [2] and with E. coli [3] were 80 µM (≈ 28 µg/mL), 5120 µM (≈ 1790 µg/mL) and 160 µM (≈ 55.9 µg/mL), respectively.

On to `CC[C@H](C)[C@H](NC(=O)CNC(=O)[C@H](C)NC(=O)[C@H](C)NC(=O)[C@@H](NC(=O)[C@@H](NC(=O)[C@H](CC(N)=O)NC(=O)[C@@H](NC(=O)[C@H](C)NC(=O)[C@@H](NC(=O)[C@@H]1CCCN1C(=O)[C@@H](NC(=O)[C@H](CC(C)C)NC(=O)[C@@H]1CCCN1C(=O)[C@H](Cc1c[nH]c2ccccc12)NC(=O)[C@H](Cc1ccccc1)NC(=O)[C@H](CCCNC(=N)N)NC(=O)[C@H](CCCCN)NC(=O)[C@@H](NC(=O)[C@@H](N)CCCNC(=N)N)C(C)C)C(C)C)C(C)C)[C@@H](C)CC)[C@@H](C)O)C(C)C)C(=O)N[C@@H](CC(N)=O)C(=O)N[C@@H](CC(C)C)C(=O)N[C@@H](Cc1ccc(O)cc1)C(=O)N[C@@H](CCCCN)C(=O)N[C@@H](C)C(=O)N[C@H](C(=O)N[C@@H](CCCNC(=N)N)C(=O)N[C@@H](CCCNC(=N)N)C(=O)N[C@@H](CCCCN)C(=O)O)[C@@H](C)CC` [CATH-3] (H-RVKRFWPLVPVAINTVAAGINLYKAIRRK-OH), for which the hemolysis with red blood cells of mice (red cells of mouse, 1 h) is less than 20%. Also, the “toxicity to PK-15 cells” value with PK-15 cells is reported as “did not show toxicity”.

As a reminder, the cell viability is a read-out of living cells in per cent, often relative to untreated cells. A higher cell viability goes with better survival. On to `CC[C@H]1OC(=O)[C@H](C)[C@@H](O[C@H]2C[C@@](C)(OC)[C@@H](O)[C@H](C)O2)[C@H](C)[C@@H](O[C@@H]2O[C@H](C)C[C@H](N(C)C)[C@H]2O)[C@](C)(O)C[C@@H](C)C(=O)[C@H](C)[C@@H](O)[C@]1(C)O` [Erythromycin, erythromycin], for which the MBC in the data set with S. aureus [1], in the data set on S. enteritidis [2] and in the data set with E. coli [3] was greater than 5120 µM in each case. Besides, the MIC against S. aureus [1] worked out at 5120 µM (≈ 3760 µg/mL); against S. enteritidis [2], 80 µM (≈ 58.7 µg/mL); in the data set with E. coli [3] it was 40 µM (≈ 29.4 µg/mL). Also, the “time to kill all bacteria” value in the data set with S. aureus [4], with E. coli [5] and in the data set with S. enteritidis [9] was greater than 180 min throughout. This compound showed a hemolysis in the data set with red blood cells of mice greater than 95%. The same compound gave a cell viability with PK-15 cells of less than 30%. Further, the “effect on bacterial migration distance” value with E. coli [6] is “did not affect bacterial migration distance”. The “MIC of erythromycin increase” value in the data set on E. coli [7] worked out at 16 fold. Further, the MIC increase in the data set with E. coli [7] ([…], 14th generation, relative to first generation) is given as 2 fold. Besides, the “E. coli cellular morphology by SEM” value in the data set with E. coli [8] is “induced the formation of micelles”.

For `CNC(C)C1CCC(N)C(OC2C(N)CC(N)C(OC3OCC(C)(O)C(NC)C3O)C2O)O1` (centres unmarked) [Gentamicin, gentamicin], the MBC in the data set with S. aureus [1] stood at 40 µM (≈ 19.1 µg/mL); with S. enteritidis [2] it was 5 µM (≈ 2.39 µg/mL); in the data set with E. coli [3] it was 2.5 µM (≈ 1.19 µg/mL). For the same compound, the MIC is 20 µM (≈ 9.55 µg/mL) against S. aureus [1], 2.5 µM (≈ 1.19 µg/mL) in the data set on S. enteritidis [2] and 1.25 µM (≈ 0.597 µg/mL) in the data set with E. coli [3].

In the data set with red blood cells of mice (red cells of mouse, 1 h), `CC[C@H](C)[C@H](NC(=O)[C@H](CCCCN)NC(=O)[C@H](CCCCN)NC(=O)[C@H](CC(C)C)NC(=O)[C@H](CCCNC(=N)N)NC(=O)[C@H](CCCCN)NC(=O)[C@H](CCCNC(=N)N)NC(=O)[C@@H](NC(=O)[C@H](CCCCN)NC(=O)[C@H](CCCCN)NC(=O)[C@H](CCCNC(=N)N)NC(=O)[C@H](CC(C)C)NC(=O)[C@H](CCCNC(=N)N)NC(=O)[C@H](CCCNC(=N)N)NC(=O)[C@H](Cc1ccccc1)NC(=O)[C@H](CCCNC(=N)N)NC(=O)CN)[C@@H](C)O)C(=O)NCC(=O)N[C@@H](CCCCN)C(=O)N[C@H](C(=O)N[C@@H](CC(C)C)C(=O)N[C@@H](CCCCN)C(=O)N[C@@H](Cc1c[nH]c2ccccc12)C(=O)N[C@H](C(=O)N1CCC[C@H]1C(=O)N1CCC[C@H]1C(=O)N[C@H](C(=O)N[C@H](C(=O)NCC(=O)N[C@@H](CO)C(=O)N[C@H](C(=O)N1CCC[C@H]1C(=O)N[C@@H](CC(C)C)C(=O)NCC(=O)N[C@@H](CS)C(=O)NCC(=O)O)[C@@H](C)CC)C(C)C)[C@@H](C)CC)[C@@H](C)CC)C(C)C` [PMAP-36] (H-GRFRRLRKKTRKRLKKIGKVLKWIPPIVGSIPLGCG-OH) displayed a hemolysis of less than 20%. Also, the cell viability with PK-15 cells (2 h) is less than 30%.

Regarding `CN(C)[C@@H]1C(O)=C(C(N)=O)C(=O)[C@@]2(O)C(O)=C3C(=O)c4c(O)cccc4[C@@](C)(O)[C@H]3C[C@@H]12` [Tetracycline, tetracycline], the results for the MBC against S. aureus [1], in the data set with S. enteritidis [2] and against E. coli [3] were 40 µM (≈ 17.8 µg/mL), 640 µM (≈ 284 µg/mL) and 10 µM (≈ 4.44 µg/mL), respectively. In the data set on S. enteritidis [2], this compound came in with an MIC of 40 µM (≈ 17.8 µg/mL).
